Measured values published in ChEMBL document CHEMBL1201862, “PubChem BioAssay data set” (2004).
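The compound was tested at five concentrations on cells cultured in 96-well plates, with a 48-hour exposure period. Abbreviation: GI50, concentration required for 50% inhibition of growth.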 The source made the active and inactive calls. No stated cut-off is given here; in the data, active = GI50 up to about 1.1 µM and inactive = higher.

Key:
Experiment in all cases: growth of human tumour cells (NCI), 48 h
A498 = system: A498
BT-549 = system: BT-549
CAKI-1 = system: CAKI-1
DU-145 = system: DU-145
HCT-15 = system: HCT-15
HOP-92 = system: HOP-92
K562 = system: K562
LOX IMVI = system: LOX IMVI
MDA-MB-231 = system: MDA-MB-231
Malme-3M = system: Malme-3M
NCI-H460 = system: NCI-H460
NCI-H522 = system: NCI-H522
OVCAR-3 = system: OVCAR-3
OVCAR-5 = system: OVCAR-5
SF-539 = system: SF-539
SK-OV-3 = system: SK-OV-3
TK-10 = system: TK-10
U-251 = system: U-251
UACC-257 = system: UACC-257
UACC-62 = system: UACC-62

Measured: GI50

O=S(=O)(c1cnccc1N1CCN(CCO)CC1)N1CCCC1
inactive: A498 > 100 µM | BT-549 > 100 µM | CAKI-1 > 100 µM | DU-145 > 100 µM | HOP-92 > 100 µM | K562 > 100 µM | LOX IMVI > 100 µM | MDA-MB-231 > 100 µM | Malme-3M > 100 µM | NCI-H460 > 100 µM | NCI-H522 > 100 µM | OVCAR-3 > 100 µM | OVCAR-5 > 100 µM | SF-539 > 100 µM | SK-OV-3 > 100 µM | TK-10 > 100 µM | U-251 > 100 µM | UACC-257 > 100 µM | UACC-62 > 100 µM
> 100 µM: HCT-15

CC(C)(C)CC(C)(C)c1ccc(O)c(C[N+](C)(C)[O-])c1
> 100 µM: HCT-15
inactive: A498 > 100 µM | BT-549 > 100 µM | CAKI-1 > 100 µM | DU-145 > 100 µM | HOP-92 77.4 µM | K562 74.8 µM | LOX IMVI > 100 µM | MDA-MB-231 > 100 µM | Malme-3M > 100 µM | NCI-H460 > 100 µM | NCI-H522 53.5 µM | OVCAR-3 58.5 µM | OVCAR-5 > 100 µM | SF-539 > 100 µM | SK-OV-3 > 100 µM | TK-10 > 100 µM | U-251 > 100 µM | UACC-257 > 100 µM | UACC-62 > 100 µM

O=C1CSC2(CC(/C=C/c3cccc(Br)c3)=NN2c2cccc(S(=O)(=O)O)c2)N1c1nc2ccccc2s1 (stereo not given)
inactive: A498 > 100 µM | BT-549 > 100 µM | CAKI-1 > 100 µM | DU-145 > 100 µM | HOP-92 > 49.7 µM | K562 42.8 µM | LOX IMVI > 82.6 µM | MDA-MB-231 > 100 µM | Malme-3M > 100 µM | NCI-H460 > 100 µM | NCI-H522 58.5 µM | OVCAR-3 > 100 µM | OVCAR-5 > 100 µM | SF-539 > 100 µM | SK-OV-3 > 100 µM | TK-10 > 100 µM | U-251 > 100 µM | UACC-257 > 100 µM | UACC-62 80.2 µM
> 100 µM: HCT-15

Cc1csc(NC23CC4CC(CC(C4)C2)C3)[n+]1C(P(=O)([O-])O)P(=O)(O)O (stereo not given)
> 100 µM: HCT-15
inactive: A498 > 100 µM | BT-549 > 100 µM | CAKI-1 > 100 µM | DU-145 > 100 µM | HOP-92 > 100 µM | K562 > 100 µM | LOX IMVI > 100 µM | MDA-MB-231 > 100 µM | Malme-3M > 100 µM | NCI-H460 > 100 µM | NCI-H522 > 100 µM | OVCAR-3 > 100 µM | OVCAR-5 > 100 µM | SF-539 > 100 µM | SK-OV-3 > 100 µM | TK-10 > 100 µM | U-251 > 100 µM | UACC-257 > 100 µM | UACC-62 > 100 µM

CC(C)/C(Cl)=N/OC(=O)Nc1ccc(F)c(Cl)c1
inactive: A498 18.2 µM | BT-549 5.06 µM | CAKI-1 1.68 µM | DU-145 16.2 µM | HOP-92 1.59 µM | LOX IMVI 1.76 µM | MDA-MB-231 16.2 µM | Malme-3M 1.96 µM | NCI-H460 18.2 µM | NCI-H522 1.65 µM | OVCAR-3 3.4 µM | OVCAR-5 19.2 µM | SF-539 6.43 µM | SK-OV-3 16.4 µM | TK-10 17.9 µM | U-251 21.1 µM | UACC-257 13.5 µM | UACC-62 14.2 µM
1.93 µM: HCT-15
active: K562 1.09 µM

CC(C)c1c(O)c(O)c2c(c1O)C(=O)C(O)=C1C(C)(C)CCC[C@@]12C
inactive: A498 3.84 µM | BT-549 3.29 µM | CAKI-1 2.61 µM | DU-145 4.13 µM | HOP-92 1.89 µM | K562 2.77 µM | LOX IMVI 4.32 µM | MDA-MB-231 2.92 µM | Malme-3M 3.88 µM | NCI-H460 3.19 µM | NCI-H522 3.56 µM | OVCAR-3 3.13 µM | OVCAR-5 5.18 µM | SF-539 3.59 µM | SK-OV-3 3.81 µM | TK-10 3.86 µM | U-251 2.77 µM | UACC-257 2.67 µM | UACC-62 3.86 µM
3.66 µM: HCT-15

O=C(O)CC1NC(/C(=C/c2ccccc2O)NC(=O)c2ccccc2)OC1=O (stereo not given)
30 µM: HCT-15
inactive: A498 > 75 µM | BT-549 13.9 µM | CAKI-1 > 56.1 µM | DU-145 > 79.6 µM | HOP-92 28.7 µM | K562 > 100 µM | LOX IMVI 50.9 µM | MDA-MB-231 22.1 µM | Malme-3M 55.7 µM | NCI-H460 > 58.7 µM | NCI-H522 33 µM | OVCAR-3 > 33.5 µM | OVCAR-5 > 100 µM | SF-539 22.3 µM | SK-OV-3 23 µM | TK-10 61 µM | U-251 24.7 µM | UACC-257 > 58.5 µM | UACC-62 25.8 µM

C1=N\c2ccc(cc2)/N=C\c2ccccc2OCc2cccc(n2)COc2ccccc2/1
inactive: A498 > 100 µM | BT-549 > 100 µM | CAKI-1 > 100 µM | DU-145 > 100 µM | HOP-92 > 100 µM | K562 > 100 µM | LOX IMVI > 100 µM | MDA-MB-231 78.3 µM | Malme-3M > 100 µM | NCI-H460 > 100 µM | NCI-H522 > 100 µM | OVCAR-3 > 100 µM | OVCAR-5 > 100 µM | SF-539 10.7 µM | SK-OV-3 > 100 µM | TK-10 > 100 µM | U-251 45 µM | UACC-257 > 100 µM | UACC-62 > 100 µM
> 100 µM: HCT-15

O=C(O)COCC(=O)N(CCOCCN(Cc1ccccc1)C(=O)COCC(=O)O)Cc1ccccc1
active: HOP-92 < 0.01 µM
inactive: A498 > 100 µM | BT-549 > 100 µM | CAKI-1 > 100 µM | DU-145 > 100 µM | K562 > 100 µM | LOX IMVI > 100 µM | MDA-MB-231 > 100 µM | Malme-3M > 100 µM | NCI-H460 > 100 µM | NCI-H522 > 100 µM | OVCAR-3 > 100 µM | OVCAR-5 > 100 µM | SF-539 > 100 µM | SK-OV-3 > 100 µM | TK-10 > 100 µM | U-251 > 100 µM | UACC-257 > 100 µM | UACC-62 > 100 µM
> 100 µM: HCT-15

O=C(/C=C/c1cccc2ccccc12)c1ccccc1
6.85 µM: HCT-15
inactive: A498 17.4 µM | BT-549 13.2 µM | CAKI-1 12.2 µM | DU-145 14.8 µM | HOP-92 18.3 µM | K562 2.74 µM | LOX IMVI 1.99 µM | MDA-MB-231 8.93 µM | Malme-3M 12.9 µM | NCI-H460 16.1 µM | NCI-H522 10.1 µM | OVCAR-3 9.16 µM | OVCAR-5 13.8 µM | SF-539 3.57 µM | SK-OV-3 16.3 µM | TK-10 6.35 µM | U-251 8.63 µM | UACC-257 15 µM | UACC-62 11.7 µM
